# Test results from patent publication US20160346255A1, “METHODS, AGENTS AND COMPOSITIONS FOR TREATMENT OF INFLAMMATORY CONDITIONS” (Betanien Hospital, priority 2014, published 2016).
# Non-standard residues stand in square brackets, D forms with d. Residues, ends and D or L forms follow the SMILES beside them. *: point of attachment. dPhe(4-NHCONH2) = NC(=O)Nc1ccc(C[C@@H](N)C(=O)O)cc1; Dihydroorotyl(S) = O=C1C[C@@H](C(=O)*)NC(=O)N1; dPhe(4-Cl) = N[C@H](Cc1ccc(Cl)cc1)C(=O)O; Phe(4-NH2) = Nc1ccc(C[C@H](N)C(=O)O)cc1; d2Nal = N[C@H](Cc1ccc2ccccc2c1)C(=O)O; Lys(iPr) = CC(C)NCCCC[C@H](N)C(=O)O; d3Pal = N[C@H](Cc1cccnc1)C(=O)O
# Tests used:
# Assay type in all cases: in vivo, human
# [1] = system: patients with risk factors for cardiovascular disease; experiment: Cardiovascular disease risk factors in patients taking degarelix; conditions: for Blood pressure: baseline 151/90; for Fasting glucose (4.0-6.0): 8.9 in April 2014; for HDL (1.0-2.7 mmol/L): Patient 7, baseline 0.68
# Excerpt: In our patient group who were offered degarelix, some patients had risk factors for cardiovascular disease, metabolic syndrome, lipidemia or hypoalphalipoproteinemia (low HDL). None of these patients had recently started medications prior to the GnRH antagonist that could explain the changes in blood pressure, HbA1c, fasting glucose or lipids. See Example 1 for patient information.
# Patient 1 with metabolic syndrome fulfilling 3 of 5 metabolic risk factors (large waistline >35 inches, high blood pressure and high fasting glucose). […] High HbA1c, contributes to CVD (normal reference range 4.3-6.1%) At baseline 6.4%, high. By 2 weeks HbA1c had normalized to 6.1%. This continues to be normal, and at 8 months is 5.7%. Their fasting glucose was 6.6 mmol/L in September 2014, by October 2014 this was reduced to 6.3 mmol/L. • 2. High blood pressure, contributes to CVD at baseline 151/90 (measured at several times prior to baseline with repeatedly high blood pressure). Blood pressure by 6 months 120/71, and this continues to be normal. At their last check up at 8 months, their blood pressure was 118/78. • 3. No other abnormalities at baseline for assessment
# Patient 4 • High HbA1c, contributes to CVD (normal reference range 4.3-6.1%). At baseline the HbA1c was 6.9%, high. By 1 month the HbA1c had reduced to 6.6, by 2 months 6.4, and by 4 months 6.2, and by 12 months it was normalized to 5.9. Their hospital records from a nearby hospital stated that their fasting glucose was high at 8.5 mmol/L (reference range 4.0-6.0) in December 2013, and by April 2014 this was higher at 8.9. They asked the patient's family doctor to initiate treatment due to the development of diabetes type II. Their fasting glucose had reduced to 6.6 mmol/L by 3 months after starting degarelix, and by 4 months has now normalised to 6.0 mmol/L. No other abnormalities baseline for assessment
# Patient 7 • 1. Low HDL, contributes to CVD (normal reference range 1.0-2.7 mmol/L). Mora et al. investigated the link between cholesterol and cardiovascular events in women and found baseline HDL level was consistently and inversely associated with incident coronary and CVD events. A low HDL cholesterol level is thought to accelerate the development of atherosclerosis because of impaired reverse cholesterol transport and possibly because of the absence of other protective effects of HDL, such as decreased oxidation of other lipoproteins. • They had low HDL at baseline 0.68 mmol/L in September 2014. They received their loading dose of degarelix 240 mg s.c. in September 2014. By 1 week, their HDL level had increased to 0.73, and by 2 weeks it continued to increase towards normal at 0.75. By 3 weeks it had normalized to 1.13 mmol/L and at 4 weeks is normal at 1.19 mmol/L. • 2. No other abnormalities at baseline for assessment
# [2] = system: Patient with Rheumatoid Arthritis; experiment: RA patient treated with degarelix and methotrexate
# Protocol: • person with seropositive rheumatoid arthritis with disease duration of 16 years • Fulfilled ACR 2010 classification criteria for rheumatoid arthritis
# • Previously failed 3 biologics (etanercept, Actemra, and rituximab). Last tried rituximab November 2013, but increasing disease activity and blood tests (CRP and ESR) during the months thereafter until start of degarelix 16.06.14. Concomitantly used stable methotrexate 10 mg weekly since 1999. • Started degarelix 240 mg induction dose 16.06.14, with 80 mg every 2 weeks thereafter. • Disease activity reduced and they achieved an ACR60 response by 29.09.14 under the introduction of degarelix and stable concomitant methotrexate and prednisolone. • 03.10.14 the patient's pulmonary physician stopped methotrexate treatment due to pleural thickening, and CT imaging supporting lung fibrosis which was suspected to be due to methotrexate. The patient had dyspnea which resolved once methotrexate was stopped. • By 21.11.14, the patients disease activity score had increased from 5.1 (29.9.14) to 5.7 (21.11.14), due to the discontinuation of methotrexate.
# Patient with Lupus = experiment: Lupus patient treated with degarelix (and earlier therapies)
# Protocol: Example of Treating a Patient with Lupus with a GnRH Antagonist
# Due to their painful condition, they have been followed up by a pain clinic. They were offered a tricyclic antidepressant, amitriptyline 25 mg in March 2014 for their painful condition.
# Therefore, we decided to offer […] degarelix. GnRH antagonists have shown anti-inflammatory effects and therefore we considered that degarelix, a depot GnRH antagonist, may have a therapeutic effect in lupus. 09.15.14, […] received […] loading dose of degarelix, 240 mg s.c.
# They received their second dose of degarelix in October 2014, 80 mg s.c. They continue on 80 mg s.c. every two weeks.
smiles,measurement,setting,value
CC(=O)N[C@H](Cc1ccc2ccccc2c1)C(=O)N[C@H](Cc1ccc(Cl)cc1)C(=O)N[C@H](Cc1cccnc1)C(=O)N[C@@H](CO)C(=O)N[C@@H](Cc1ccc(NC(=O)[C@@H]2CC(=O)NC(=O)N2)cc1)C(=O)N[C@H](Cc1ccc(NC(N)=O)cc1)C(=O)N[C@@H](CC(C)C)C(=O)N[C@@H](CCCCNC(C)C)C(=O)N1CCC[C@H]1C(=O)N[C@H](C)C(N)=O [degarelix] (Ac-[d2Nal][dPhe(4-Cl)][d3Pal]S[Phe(4-NH2)](Dihydroorotyl(S))[dPhe(4-NHCONH2)]L[Lys(iPr)]P[dA]-NH2),Fasting glucose,"[1]; Patient 1, October 2014, 6.6 mmol/L in September 2014",6.3 mmol/L
same,Criteria for metabolic syndrome,"[1]; Patient 1, after degarelix, 3 of 5 risk factors before",no longer fulfills the criteria
same,HbA1c (4.3-6.1%),"[1]; Patient 1, at 8 months, baseline 6.4%",5.7%
same,Blood pressure,"[1]; Patient 1, at 8 months",118/78
same,HbA1c (4.3-6.1%),"[1]; Patient 1, by 2 weeks, baseline 6.4%",6.1%
same,Blood pressure,"[1]; Patient 1, by 6 months",120/71
same,HbA1c (4.3-6.1%),"[1]; Patient 4, by 1 month, baseline 6.9%",6.6%
same,HbA1c (4.3-6.1%),"[1]; Patient 4, by 2 months, baseline 6.9%",6.4%
same,Fasting glucose (4.0-6.0),"[1]; Patient 4, by 3 months",6.6 mmol/L
same,Fasting glucose (4.0-6.0),"[1]; Patient 4, by 4 months, normalised",6.0 mmol/L
same,HbA1c (4.3-6.1%),"[1]; Patient 4, by 4 months, baseline 6.9%",6.2%
same,HbA1c (4.3-6.1%),"[1]; Patient 4, by 12 months, normalized, baseline 6.9%",5.9%
same,HDL (1.0-2.7 mmol/L),[1]; at 4 weeks,1.19 mmol/L
same,HDL (1.0-2.7 mmol/L),[1]; by 1 week,0.73 mmol/L
same,HDL (1.0-2.7 mmol/L),[1]; by 2 weeks,0.75 mmol/L
same,HDL (1.0-2.7 mmol/L),"[1]; by 3 weeks, normalized",1.13 mmol/L
same,Disease activity score,"[2]; 21.11.14, degarelix after methotrexate stopped 03.10.14",5.7
same,Disease activity score,"[2]; 29.9.14, degarelix with methotrexate 10 mg weekly",5.1
same,ACR response achieved,"[2]; by 29.09.14 (start 16.06.14), with stable concomitant methotrexate and prednisolone",ACR60
same,Total urinary protein,"Patient with Lupus; 7 Nov. 2014, 15 Sep. 2014 0.78",0.17 g/L
same,LH (<12),"Patient with Lupus; 7 Nov. 2014, 15 Sep. 2014 11",<0.3
same,FSH (<12),"Patient with Lupus; 7 Nov. 2014, 15 Sep. 2014 14",<0.1
same,ANA (<1),"Patient with Lupus; 7 Nov. 2014, 15 Sep. 2014 >32 out of range",26↑
same,Total urinary protein,"Patient with Lupus; 14 Oct. 2014, 15 Sep. 2014 0.78",0.15 ^2 g/L
same,FSH (<12),"Patient with Lupus; 14 Oct. 2014, 15 Sep. 2014 14",<0.1
same,ANA (<1),"Patient with Lupus; 14 Oct. 2014, 15 Sep. 2014 >32 out of range",28↑
same,Total urinary protein,"Patient with Lupus; 23 Sep. 2014, 15 Sep. 2014 0.78",0.75 ↑ g/L
same,LH (<12),"Patient with Lupus; 23 Sep. 2014, 15 Sep. 2014 11",<0.3
same,FSH (<12),"Patient with Lupus; 23 Sep. 2014, 15 Sep. 2014 (loading dose day) 14",2
same,ANA (<1),"Patient with Lupus; 25 Sep. 2014, 15 Sep. 2014 >32 out of range",31 ↑
same,Parasthesias,"Patient with Lupus; by 1 month of treatment, balance improved",no longer has parasthesias
same,Proteinuria,"Patient with Lupus; by 1 month, still in remission at 2 months",complete remission
same,Morning pain,"Patient with Lupus; by 8 weeks, before 3.5 hours",0 h
same,Morning pain,"Patient with Lupus; by day 5, before 3.5 hours",1.5 h
same,Morning pain,"Patient with Lupus; by day 10, before 3.5 hours",0 h
same,Ulcers on toes and hands,Patient with Lupus; by day 10 of treatment,several ulcers had healed
same,Foot erythema,Patient with Lupus; week 8 (FIG. 8),decreased
